The target in one assay is T1, ERp57 (Homo sapiens, UniProt P30101).
T1 construct: purchased AbCam (Cambridge Mass.)
T1 sequence (P30101 25-505): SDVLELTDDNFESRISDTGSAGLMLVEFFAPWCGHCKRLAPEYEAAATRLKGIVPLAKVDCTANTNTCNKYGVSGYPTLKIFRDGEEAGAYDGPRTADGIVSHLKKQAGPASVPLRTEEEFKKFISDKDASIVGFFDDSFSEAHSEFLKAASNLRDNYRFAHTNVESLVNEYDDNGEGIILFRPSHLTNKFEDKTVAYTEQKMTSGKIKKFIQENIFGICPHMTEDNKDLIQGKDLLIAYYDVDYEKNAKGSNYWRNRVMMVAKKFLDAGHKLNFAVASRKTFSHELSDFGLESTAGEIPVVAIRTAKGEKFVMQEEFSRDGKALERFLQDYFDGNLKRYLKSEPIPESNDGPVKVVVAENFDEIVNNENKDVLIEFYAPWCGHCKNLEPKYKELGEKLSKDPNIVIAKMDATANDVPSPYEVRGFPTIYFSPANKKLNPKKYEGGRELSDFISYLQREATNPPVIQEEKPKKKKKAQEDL
Description: Insulin-based turbidometric assay of thiol isomerase inhibitory activity (ERp57). As to conditions: specificity assay, insulin turbidity. Type of assay: biochemical.

Another assay has as its system human washed platelets. In words: Collagen stimulated platelet aggregation. Type of assay: cell-based. To be noted: collagen 1 μg/mL, 3 minutes. Here is the method:
Human Platelet Preparation: 50 mL of blood was drawn from drug free, consenting individuals, into a syringe containing 5 mL sodium citrate (4% w/v) and 7.5 mL warmed ACD (85 mM sodium citrate, 71 mM citric acid and 110 mM glucose). Blood was centrifuged at 102 g for 20 minutes to obtain platelet-rich plasma (PRP), which was then decanted and 104 prostacyclin (PGI2 125 μg/mL, solubilized in ethanol) added. Platelets were pelleted by centrifugation at 1413 g for 10 minutes, platelet poor plasma was discarded and the pellet resuspended in 25 mL Tyrode's-HEPES buffer (134 mM NaCl, 2.9 mM KCl, 0.34 mM Na2HPO4, 12 mM NaHCO3, 20 mM HEPES, 1 mM MgCl2 and 5 mM glucose pH 7.3), 3 mL of ACD and 10 μL PGI2 were added and then following centrifugation at 1413 g for 10 minutes, the platelet pellet was re-suspended to the appropriate cell density using Tyrode's buffer. Platelets were rested for 30 minutes at 30° C. to allow platelet responses to recover.
Platelet Aggregation: 445 μL of washed platelets at (4×10^8 cells/mL) were incubated for 5 minutes with vehicle (0.1% (v/v) DMSO) or 54 zafirlukast or montelukast. 50 μL of collagen 1 μg/mL (final), was added and light transmission monitored for 3 minutes at 37° C. with constant stirring (1200 rpm) using an aggregometer (Chronolog, USA).
Statistical analyses: All raw data was analyzed by 1-way ANOVA and where appropriate normalized to vehicle. GraphPad Prism was used to perform statistical analysis by ANOVA or students T test. The level of significance of p values is as follows, *p<0.05,**p<0.01, ***p<0.005. Data presented are mean+/−standard error of the mean.
Zafirlukast inhibits platelet aggregation: Human washed platelets (4×10^8 cells/mL) were pre-treated with 0.1 μM-10 μM zafirlukast or vehicle. Platelets were stimulated with collagen 1 μg/mL and allowed to aggregate for 3 minutes. Aggregation traces representative of the response were obtained and dose responses compared.

Usually inhibition stands for the change of the read-out against control, counted positive when it falls. High values mean strong suppression, low ones little suppression.

Turning to `CC(C)(C=O)Cc1cc(C(C)(C)C)c(O)c(C(C)(C)C)c1` [CGP-13501], the “specificity among thiol isomerases” value on ERp57 is on record as “specific for ERp57”.

Take `CC(C)(O)c1ccccc1CC[C@@H](SCC1(CC(=O)O)CC1)c1cccc(/C=C/c2ccc3ccc(Cl)cc3n2)c1` [montelukast, [R-(E)]-1-[[[1-[3-[2-(7-chloro-2-quinolinyl)ethenyl]phenyl]-3-[2-(7-chloro-2-quinolinyl)ethenyl]phenyl]-3-[2-(1-hydroxy-1-methylethyl)phenyl]propyl]thio]methyl cyclopropane acetic acid]: the “platelet aggregation, normalized to vehicle” value in the assay with human washed platelets (10 μM) is 3.99±0.800%. In the assay on human washed platelets (Homo sapiens, Platelet, 0.05 h, 2.5 μM), this compound returned an inhibition at 2.5 µM of 62.1%. In the assay on human washed platelets (Homo sapiens, Platelet, 0.05 h, 3.75 μM), this compound returned an inhibition at 3.75 µM of 83.6%. Also, 5 µM produced 90.6% inhibition in the assay with human washed platelets (Homo sapiens, Platelet, 0.05 h, 5 μM). This compound also registered an inhibition at 10 µM with human washed platelets (Homo sapiens, Platelet, 0.05 h, 10 μM) of 96.1%.

The values above are taken from patent publication US11872210B2, “Thiol isomerases inhibitors and use thereof” (WESTERN NEW ENGLAND UNIVERSITY, priority 2017, dated 2024).
